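In this assay, cells in 96-well plates receive the compound at five concentrations for 48 hours. Endpoints are linearly interpolated between the surrounding concentrations. GI50 = concentration required for 50% inhibition of growth.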 The source made the active and inactive calls. No stated cut-off is given here; in the data, active = GI50 up to about 1.1 µM and inactive = higher.
Legend:
Assay in all cases: growth of human tumour cells (NCI), 48 h
U-251 = tested on: U-251
TK-10 = tested on: TK-10
UO-31 = tested on: UO-31
SK-MEL-5 = tested on: SK-MEL-5
HCC 2998 = tested on: HCC 2998
NCI-H226 = tested on: NCI-H226
A549 = tested on: A549
UACC-62 = tested on: UACC-62
A498 = tested on: A498
T47D = tested on: T47D
NCI/ADR-RES = tested on: NCI/ADR-RES
RPMI-8226 = tested on: RPMI-8226
MOLT-4 = tested on: MOLT-4
SK-MEL-28 = tested on: SK-MEL-28
IGROV-1 = tested on: IGROV-1
M14 = tested on: M14
Hs-578T = tested on: Hs-578T
KM12 = tested on: KM12

| SMILES | GI50 (U-251) | GI50 (TK-10) | GI50 (UO-31) | GI50 (SK-MEL-5) | GI50 (HCC 2998) | GI50 (NCI-H226) | GI50 (A549) | GI50 (UACC-62) | GI50 (A498) | GI50 (T47D) | GI50 (NCI/ADR-RES) | GI50 (RPMI-8226) | GI50 (MOLT-4) | GI50 (SK-MEL-28) | GI50 (IGROV-1) | GI50 (M14) | GI50 (Hs-578T) | GI50 (KM12) |
| --- | --- | --- | --- | --- | --- | --- | --- | --- | --- | --- | --- | --- | --- | --- | --- | --- | --- | --- |
| COc1ccc2cc(-c3ccc(OC)c(OC)c3)c(=O)oc2c1 | 57.4 µM (inactive) | > 100 µM (inactive) | > 100 µM (inactive) | > 100 µM (inactive) | > 100 µM (inactive) | > 100 µM (inactive) | > 100 µM (inactive) | > 100 µM (inactive) | 96.8 µM (inactive) | > 100 µM (inactive) | > 100 µM (inactive) | > 100 µM (inactive) | > 100 µM (inactive) | > 100 µM (inactive) | > 100 µM (inactive) | > 100 µM (inactive) | 29.3 µM (inactive) | > 100 µM (inactive) |
| O=C(Nn1c(-c2ccccc2)nc2ccccc2c1=O)c1ccccc1O | 44.5 µM (inactive) | 75.9 µM (inactive) | 36.7 µM (inactive) | 19.4 µM (inactive) | 70.1 µM (inactive) | 38.9 µM (inactive) | 36.8 µM (inactive) | 23.4 µM (inactive) | 71.6 µM (inactive) | 42.3 µM (inactive) | 34.4 µM (inactive) | 51.5 µM (inactive) | 24 µM (inactive) | 39.3 µM (inactive) | 32.2 µM (inactive) | 51.1 µM (inactive) | > 100 µM (inactive) | 60.1 µM (inactive) |
| O=C(O)c1ccc(S(=O)(=O)c2ccccc2[N+](=O)[O-])cc1 | > 10 µM (inactive) | > 10 µM (inactive) |  | > 10 µM (inactive) | > 10 µM (inactive) | > 10 µM (inactive) | > 10 µM (inactive) | > 10 µM (inactive) | > 10 µM (inactive) | > 10 µM (inactive) | > 10 µM (inactive) | > 10 µM (inactive) | > 10 µM (inactive) | > 10 µM (inactive) | > 10 µM (inactive) | > 10 µM (inactive) | > 10 µM (inactive) | > 10 µM (inactive) |
| O=C1N2CCc3c([nH]c4ccccc34)C23CC2CCCCC12S3 (configuration not stated) | > 100 µM (inactive) | 28.3 µM (inactive) | > 100 µM (inactive) | 63.5 µM (inactive) |  | > 100 µM (inactive) | > 100 µM (inactive) | > 100 µM (inactive) | > 100 µM (inactive) | > 100 µM (inactive) | > 100 µM (inactive) | 48.8 µM (inactive) | 24.7 µM (inactive) | > 100 µM (inactive) | > 100 µM (inactive) | > 100 µM (inactive) | > 100 µM (inactive) | > 100 µM (inactive) |
| CCCC1CC(=O)NC(=O)C1C(=O)OC(C)(C)C (configuration not stated) | > 100 µM (inactive) | > 100 µM (inactive) | > 100 µM (inactive) | > 100 µM (inactive) | > 100 µM (inactive) | > 100 µM (inactive) |  | > 100 µM (inactive) | > 100 µM (inactive) | > 100 µM (inactive) | > 100 µM (inactive) | > 100 µM (inactive) | > 100 µM (inactive) | > 100 µM (inactive) | > 100 µM (inactive) |  | > 100 µM (inactive) | > 100 µM (inactive) |
| NCCc1ccc2c(c1)C(=O)c1c(O)ccc(O)c1C2=O | 3.64 µM (inactive) | > 100 µM (inactive) | 4.65 µM (inactive) | 0.843 µM (active) | > 23.9 µM (inactive) | 17 µM (inactive) | 3.56 µM (inactive) | 5.86 µM (inactive) | > 58.1 µM (inactive) | 3.37 µM (inactive) | 3.93 µM (inactive) | 4.14 µM (inactive) | 2.76 µM (inactive) |  | 3.4 µM (inactive) | 3.08 µM (inactive) | 5.98 µM (inactive) | 4.72 µM (inactive) |
| COC(=O)/C1=C/c2c([nH]c3ccccc23)/C(C(=O)OC)=C\c2c1[nH]c1ccccc21 [CAULERPIN] | 19.5 µM (inactive) | 32.6 µM (inactive) | 7.6 µM (inactive) | 28.8 µM (inactive) |  | > 50 µM (inactive) | 33.3 µM (inactive) | 19.9 µM (inactive) | 39.2 µM (inactive) | 20.2 µM (inactive) | > 50 µM (inactive) |  |  |  | 7.53 µM (inactive) | 25.2 µM (inactive) | 16.8 µM (inactive) | 35.2 µM (inactive) |
| COc1nc2ncc([C@@H](O)[C@H](O)CO)nc2c(=O)[nH]1 | > 100 µM (inactive) | > 100 µM (inactive) | > 100 µM (inactive) | > 100 µM (inactive) |  | > 100 µM (inactive) | > 100 µM (inactive) | > 100 µM (inactive) | > 100 µM (inactive) | > 100 µM (inactive) | > 100 µM (inactive) | > 100 µM (inactive) | > 100 µM (inactive) | > 100 µM (inactive) | > 100 µM (inactive) | > 100 µM (inactive) | > 100 µM (inactive) | > 100 µM (inactive) |
| CN(C)CCNC(=O)Cn1cc([N+](=O)[O-])c(=O)c2ccccc21 | > 100 µM (inactive) | > 100 µM (inactive) | > 100 µM (inactive) | > 100 µM (inactive) | > 100 µM (inactive) | > 100 µM (inactive) | > 100 µM (inactive) | > 100 µM (inactive) | > 100 µM (inactive) | > 100 µM (inactive) | > 100 µM (inactive) |  | > 100 µM (inactive) | > 100 µM (inactive) | > 100 µM (inactive) | > 100 µM (inactive) | > 100 µM (inactive) | > 100 µM (inactive) |
| O=C(NCCCCCCCCCCCCNC(=O)Nc1cccc2ccccc12)Nc1cccc2ccccc12 | 14.3 µM (inactive) | 17.7 µM (inactive) | 19.1 µM (inactive) | 20.8 µM (inactive) | 14.2 µM (inactive) |  | 18.2 µM (inactive) | 12.6 µM (inactive) | 16.9 µM (inactive) | 19.1 µM (inactive) | 24.1 µM (inactive) | 19.5 µM (inactive) | 20.3 µM (inactive) | 19.5 µM (inactive) | 18.4 µM (inactive) | 20.1 µM (inactive) | 14.7 µM (inactive) | 18.4 µM (inactive) |
| O=C1NC(=O)C(CCC(=O)c2cccc3ccccc23)C(=O)N1 | > 100 µM (inactive) |  | > 100 µM (inactive) | > 100 µM (inactive) | > 100 µM (inactive) | 77.8 µM (inactive) | > 100 µM (inactive) | > 100 µM (inactive) | > 100 µM (inactive) | > 100 µM (inactive) | > 100 µM (inactive) | 48.8 µM (inactive) | > 100 µM (inactive) | > 100 µM (inactive) |  | > 100 µM (inactive) | > 100 µM (inactive) | > 100 µM (inactive) |
| CC(=S)N/C=C1/C(=O)C=C(C)OC1=O | > 100 µM (inactive) | > 100 µM (inactive) | > 100 µM (inactive) | 90.2 µM (inactive) | > 100 µM (inactive) | > 100 µM (inactive) | > 100 µM (inactive) | > 100 µM (inactive) | > 100 µM (inactive) | > 100 µM (inactive) | > 100 µM (inactive) | > 100 µM (inactive) | > 100 µM (inactive) |  | > 100 µM (inactive) | > 100 µM (inactive) | > 100 µM (inactive) | > 100 µM (inactive) |
| CCCCC/C=C\C=C1\C(=O)C=C[C@@H]1C/C=C\CCCC(=O)O | 2.48 µM (inactive) | 8.43 µM (inactive) | 6.31 µM (inactive) | 3.78 µM (inactive) |  | 7.38 µM (inactive) | 5.73 µM (inactive) | 3.94 µM (inactive) | 11.7 µM (inactive) | 9.35 µM (inactive) | 1.24 µM (inactive) | 1.38 µM (inactive) | 2.25 µM (inactive) | 6.65 µM (inactive) | 2.75 µM (inactive) | 6.85 µM (inactive) | 2.47 µM (inactive) | 2.67 µM (inactive) |
| Cc1ccc(N/C(SCc2ccccc2)=C(\C(Cl)=C(Cl)Cl)[N+](=O)[O-])c(C)c1 | 15.6 µM (inactive) |  | 20 µM (inactive) |  | 45.6 µM (inactive) | 45.2 µM (inactive) | 27.1 µM (inactive) | 23.6 µM (inactive) | 22.2 µM (inactive) | 18.1 µM (inactive) | 21.2 µM (inactive) | 21.1 µM (inactive) | > 100 µM (inactive) | 23.8 µM (inactive) |  | 16.9 µM (inactive) | 39.1 µM (inactive) | 17.2 µM (inactive) |
| CCN(CCN(CC)C(=O)NC)C(=O)NC | > 100 µM (inactive) | > 100 µM (inactive) | > 100 µM (inactive) | > 100 µM (inactive) | > 100 µM (inactive) | > 100 µM (inactive) | > 100 µM (inactive) | > 100 µM (inactive) | > 100 µM (inactive) | > 100 µM (inactive) | > 100 µM (inactive) | > 100 µM (inactive) | > 100 µM (inactive) | > 100 µM (inactive) | > 100 µM (inactive) | > 100 µM (inactive) | > 100 µM (inactive) |  |
| COc1ccc2c(c1)CCC(CN1CCN(CCOC(c3ccc(F)cc3)c3ccc(F)cc3)CC1)=C2 | 14.8 µM (inactive) | 14.3 µM (inactive) |  | 5.22 µM (inactive) | 4.89 µM (inactive) | 13 µM (inactive) | 27.5 µM (inactive) | 16.1 µM (inactive) | 8.36 µM (inactive) | 8.45 µM (inactive) | 11.8 µM (inactive) | 4.52 µM (inactive) | 10 µM (inactive) | 21.3 µM (inactive) | 28.1 µM (inactive) | 9.31 µM (inactive) | 19.3 µM (inactive) | 15.1 µM (inactive) |

— ChEMBL document CHEMBL1201862, “PubChem BioAssay data set” (2004)
